Laboratory results from patent US9241976B2, “Use of HDL-related molecules to treat and prevent proinflammatory conditions” (THE REGENTS OF THE UNIVERSITY OF CALIFORNIA, priority 2011, dated 2016).

Columns and labels:
CT26 cells [1] = test: Pulmonary metastasis in vivo: CT26 lung tumors in BALB/c mice; design: species or system mouse; conditions: CT26 via tail vein, 100 mg/kg/d in chow diet for 3 weeks
Procedure: BALB/c mice were intravenously injected with 2×10^4 CT26 cells in 100 μL of PBS via tail vein injection and the mice were treated with bHDL at 10 mg/kg/day administered SQ for 3 weeks; or treated with bHDL at 100 mg/kg/day administered in a chow diet for 3 weeks. After 3 weeks treatment, the mice were sacrificed; lungs were harvested, weighed and fixed with Bouin's solution (Sigma). Tumor nodules on the lung surface were counted.
BALB/c mice were intravenously injected with 2×10^4 CT26 cells in […] of PBS via tail vein injection and the mice were treated with L-4F or sc-4F at 10 mg/kg/d administered subcutaneously for 3 weeks, or treated with sc-4F or L-4F or G* peptide at 100 mg/kg/d administered in a chow diet for 3 weeks. After 3 weeks treatment, the mice were sacrificed; lungs were harvested, weighed, and fixed with Bouin solution (Sigma). Tumor nodules on the lung surface were counted.

[2] = system: lysophosphatidic acid (LPA); test: Plasma LPA levels in treated mice; type: in vivo, mouse; conditions: BALB/c lung tumor mice; 100 mg/kg/d in chow for 3 weeks; vs control mice
Procedure: LPA (20:4) was purchased from Avanti Polar Lipids. LPA levels were determined as described previously (Murph et al., 2007, Methods Enymol 433:1-25).
LPA (20:4) was purchased from Avanti Polar Lipids. LPA levels were determined as described previously (19).

cyclin D1 and cyclin A = test: Western blot of cyclin D1 and cyclin A in CT26 cells; type: cell-based, mouse
Procedure: Total cell proteins were collected after treatment in cell lysis buffer containing 0.1 mol/L NaCl, 5 mmol/L EDTA, 50 mmol/L sodium orthovanadate, 1% Triton X-100, and protease inhibitor tablet in 50 mmol/L Tris buffer (pH 7.5). Twenty micrograms of total proteins were separated by SDS-PAGE and transferred onto nitrocellulose membrane and followed by incubation with primary antibody at 4° C. in 5% skim milk and 0.1% Tween-20. Anti-cyclin D1 and anti-cyclin A rabbit polyclonal antibodies were used at 1:1,000 dilution, and anti-b-actin polyclonal antibody was used at 1:2,000 dilution.

CT26 cells [3] = test: CT26 cell viability, MTS assay; conditions: Example 5; CT26 cells, 10 mg/mL, 48 hours
Procedure: CT26 cell line derived from N-nitroso-N-methyl urethane-induced mouse colon carcinoma of BALB/c origin was purchased from the American Type Culture Collection (ATCC). CT26 cells (2,000 cells per well) were first cultured in complete medium in 96-well culture plates, and 24 hours later the medium was replaced with serum free medium. Following an overnight incubation, the cells were either treated with vehicle (control), or treated with 10 μg/mL of either bHDL. The bHDL were dissolved in H2O. Cells were incubated for an additional 48 hours and assayed for viability using the MTS assays kit (Promega) according to the manufacturer's protocol.
CT26 cell line derived from N-nitroso-N-methyl urethane-induced mouse colon carcinoma of BALB/c origin was purchased from the American Type Culture Collection. CT26 cells (2,000 cells per well) were first cultured in complete medium in 96-well culture plates, and 24 hours later the medium was replaced with serum-free medium. Following an overnight incubation, the cells were either treated with vehicle (control) or treated with 10 mg/mL of either L-4F or G* peptide. The peptides were dissolved in H2O. Cells were incubated for an additional 48 hours and assayed for viability using the MTS assay kit (Promega) according to the manufacturer's protocol.

Substance: Ac-LVGRQLEEFL-NH2 [G* peptide, Ac-L-V-G-R-Q-L-E-E-F-LNH2]
- lung weights (CT26 cells [1]): 250 mg
- tumor numbers on the lung surface (CT26 cells [1]): 10
- plasma LPA levels [2]: significantly reduced
- expression of cyclin D1 and cyclin A (cyclin D1 and cyclin A): lower
- Cell viability reduced, compared with control (CT26 cells [3]): approximately 40%
